# Where “and” joins values, the source holds several entries; their conditions need not be identical. Equal values may be shown once. Read-outs that look alike come from different tables or passages of the source.
# Columns and labels:
# [1] = system: prostate specific membrane antigen (PSMA); conditions: cited from earlier work
# [2] = system: BxPC-3 xenograft tumors; test: Biodistribution in mice bearing BxPC-3 xenograft tumors; assay type: in vivo; conditions: 4 h p.i.; for Blood uptake / Bone uptake / Brain uptake / BxPC-3 Tumor uptake / Fecal Matter radioactivity / Gall Bladder uptake / Heart uptake / Kidneys uptake / Lg. Intestines uptake / Liver uptake / Lung uptake / Muscle uptake / Pancreas uptake / Skin uptake / Sm. Intestines uptake / Spleen uptake / Stomach uptake / Urine radioactivity: i.v.
# Experimental: All animal procedures conformed to the Animal Welfare Act and were approved by the University of California, Davis Institutional Animal Care and Use Committee. Female athymic nu/nu-nude mice (6–8 weeks old) were purchased from Charles River Laboratories (Wilmington, MA, USA) and provided food and water on an ad libitum basis. BxPC-3 xenografts were implanted according to previous methods. Briefly, BxPC-3 cells were evaluated by flow cytometry to confirm integrin αvβ6 expression levels, injected subcutaneously into the left flank [5 million in 100 μL of a 1:1 mixture of serum-free RPMI and GFR Matrigel (Corning, New York, NY, USA)], and allowed to grow for approximately 3 weeks until tumors reached a diameter of 0.5–1 cm.
# For biodistribution studies the [^64Cu]1–4 (3.7–5.55 MBq) in PBS (100 μL, pH 7.2) was injected intravenously (i.v.) via catheter into the tail vein. Following a conscious uptake period, the mice were anesthetized (5% isoflurane), euthanized, and dissected ([^64Cu]1 and [^64Cu]2, n = 3/radiolabeled peptide/time point; 4, 24, and 48 h p.i.; the 72 h time point was obtained from the imaging animals after the 72 h PET/CT scans; compounds [^64Cu]3 and [^64Cu]4, n = 2/radiolabeled compound at 4 h p.i.). Tissues were rapidly collected, weighed, and radioactivity measured with a γ-counter. Decay-corrected radioactivity concentrations are expressed as the percentage of injected dose per gram of tissue (% ID/g). Data are reported as mean ± standard deviation (SD) (Figure S20, S21 and S25).
# [3] = parameters: method as in PMID 23236020, PMID 28094532; conditions: cited from earlier work
# [4] = biological target: T1, integrin αvβ6 (Homo sapiens, UniProt P06756+P18564); parameters: method as in PMID 34783573; conditions: competitive ELISA against biotinylated LAP; read-out: IC50, integrin αvβ6 affinity; cited from earlier work
# T1 construct: purchased R&D Systems
# [5] = biological target: T1, integrin αvβ6; test: Integrin αvβ6 affinity competitive binding ELISA against biotinylated LAP
# Experimental: Affinity for the integrin αvβ6 was determined by competitive binding ELISA of [^NatCu]1 and [^NatCu]2 against biotinylated-LAP (G&P Biosciences, Santa Clara, CA, USA) as previously described to determine the half-maximum inhibitory concentration (IC50). Briefly, in a 96 well Nunc Immuno maxisorp plate, capturing anti-αv antibody (P2W7, 5 μg/mL, Abcam, MA, USA) was plated (50 μL/well) at 37 °C for 1 h, washed with PBS (3×), and blocked overnight with blocking buffer (300 μL/well, 0.5% non-fat dry milk powder (w/v), 1% Tween 20, in PBS). It was then washed with wash buffer that consisted of 2 mmol/L of Tris buffer (pH = 7.6), 150 mmol/L sodium chloride, 1 mmol/L manganese chloride, and 0.1% Tween 20 (v/v) in deionized water (3×). […] The ExtrAvidin HRP was detected with TMB One solution (50 μL/well; Promega Corp., Madison, WI, USA) for 10–15 min at room temperature. The reaction was stopped by adding 1N sulfuric acid (H2SO4, 50 μL/well; EMD, MA, USA) and the absorbance was measured in a Multiscan Ascent plate reader (Thermo Fisher, Waltham, MA, USA) at 450 nm. Half-maximal inhibitory concentration (IC50) of peptides was determined by fitting to sigmoidal dose-response model in GraphPad Prism 8.0 (GraphPad, CA, USA). […]
# [6] = parameters: method as in PMID 32383076, PMID 24267053; conditions: cited from earlier work
# [7] = system: human serum protein; parameters: method as in PMID 34783573; conditions: either serum albumin (human); cited from earlier work
# [8] = system: BxPC-3 xenograft tumors; parameters: method as in PMID 34783573; conditions: cited from earlier work
# [9] = system: mouse serum protein; parameters: method as in PMID 34783573; conditions: either serum albumin (mouse); cited from earlier work
# [10] = parameters: method as in PMID 26771036, PMID 26251416; conditions: cited from earlier work
# [11] = system: U87MG glioblastoma tumor model; conditions: cited from earlier work
# [12] = parameters: method as in PMID 29653971; conditions: clinical trials; cited from earlier work
# [13] = system: somatostatin receptor; conditions: cited from earlier work; for Tumor accumulation: 24 h
# T1 sequence (P06756 31-992 limits assumed): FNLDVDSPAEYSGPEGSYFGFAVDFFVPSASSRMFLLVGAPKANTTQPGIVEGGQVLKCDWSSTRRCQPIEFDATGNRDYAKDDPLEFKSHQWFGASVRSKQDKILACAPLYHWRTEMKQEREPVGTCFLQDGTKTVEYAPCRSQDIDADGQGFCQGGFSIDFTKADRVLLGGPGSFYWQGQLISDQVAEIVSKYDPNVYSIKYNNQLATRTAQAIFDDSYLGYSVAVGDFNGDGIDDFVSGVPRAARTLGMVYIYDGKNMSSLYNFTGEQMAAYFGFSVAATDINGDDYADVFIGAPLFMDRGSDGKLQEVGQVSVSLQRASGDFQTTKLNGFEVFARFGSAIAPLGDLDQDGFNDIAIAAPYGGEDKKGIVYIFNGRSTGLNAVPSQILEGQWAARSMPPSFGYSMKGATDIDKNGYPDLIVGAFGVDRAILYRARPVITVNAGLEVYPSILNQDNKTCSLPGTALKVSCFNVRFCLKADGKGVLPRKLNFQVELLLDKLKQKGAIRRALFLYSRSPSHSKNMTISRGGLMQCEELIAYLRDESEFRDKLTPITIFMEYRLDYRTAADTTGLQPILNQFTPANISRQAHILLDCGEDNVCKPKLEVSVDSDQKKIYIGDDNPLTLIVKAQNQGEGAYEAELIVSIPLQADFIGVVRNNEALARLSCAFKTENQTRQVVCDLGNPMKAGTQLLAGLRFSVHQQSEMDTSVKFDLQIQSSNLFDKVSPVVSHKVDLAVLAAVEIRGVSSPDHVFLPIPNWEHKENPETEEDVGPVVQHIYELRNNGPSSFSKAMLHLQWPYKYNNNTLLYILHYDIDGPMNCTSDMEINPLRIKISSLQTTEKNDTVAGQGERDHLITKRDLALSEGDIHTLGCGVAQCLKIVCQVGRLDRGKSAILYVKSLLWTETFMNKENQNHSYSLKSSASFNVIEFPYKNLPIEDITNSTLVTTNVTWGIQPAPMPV
# T1 sequence (P18564 22-707 limits assumed): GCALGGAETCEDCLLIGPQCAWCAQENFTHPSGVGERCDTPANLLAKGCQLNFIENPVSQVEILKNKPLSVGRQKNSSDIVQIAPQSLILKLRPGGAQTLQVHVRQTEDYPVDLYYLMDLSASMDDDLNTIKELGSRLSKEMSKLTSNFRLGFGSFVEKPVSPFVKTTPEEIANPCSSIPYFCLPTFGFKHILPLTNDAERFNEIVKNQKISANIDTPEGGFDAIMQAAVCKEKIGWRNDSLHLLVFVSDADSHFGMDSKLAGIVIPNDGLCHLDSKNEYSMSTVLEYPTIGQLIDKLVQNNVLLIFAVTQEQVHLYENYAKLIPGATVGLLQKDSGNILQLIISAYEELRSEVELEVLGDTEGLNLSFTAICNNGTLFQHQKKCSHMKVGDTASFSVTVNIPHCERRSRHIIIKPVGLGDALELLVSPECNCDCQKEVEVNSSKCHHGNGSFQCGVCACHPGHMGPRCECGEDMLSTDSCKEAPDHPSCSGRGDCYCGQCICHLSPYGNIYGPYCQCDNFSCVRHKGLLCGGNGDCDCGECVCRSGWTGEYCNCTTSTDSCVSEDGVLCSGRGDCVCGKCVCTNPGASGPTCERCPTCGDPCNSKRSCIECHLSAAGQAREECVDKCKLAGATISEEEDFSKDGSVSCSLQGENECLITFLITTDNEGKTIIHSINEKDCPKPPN
compound,measurement,setting,value
Cc1cc(-c2ccc(NC(=O)[C@H](CCCCNC(=O)CCN3C(=O)CC(SCC(=O)NCC4CCC(C(=O)N[C@H](Cc5ccc6ccccc6c5)C(=O)NCCCC[C@H](NC(=O)N[C@@H](CCC(=O)O)C(=O)O)C(=O)O)CC4)C3=O)NC(=O)CN3CCN(CC(=O)O)CCN(CC(=O)O)CCN(CC(=O)O)CC3)c(C)c2)ccc1N=Nc1ccc2c(S(=O)(=O)O)cc(S(=O)(=O)O)c(N)c2c1O (stereo partly shown) [EB-ABM PSMA-617],Kidney accumulation,[1]; 4 h,> 20 % ID/g
same,Tumor accumulation,[1]; from 4 h to 48 h,65.6–77.3 % ID/g
"Cc1cc(-c2ccc(NC(=O)CCC(=O)NCCCC[C@H](NC(=O)CN3CCN(CC(=O)O)CCN(CC(=O)O)CCN(CC(=O)O)CC3)C(N)=O)c(C)c2)ccc1N=Nc1ccc2c(S(=O)(=O)O)cc(S(=O)(=O)O)c(N)c2c1O [[^64Cu]3, [^64Cu]Cu DOTA-EB, metal not drawn]",Tumor-Kidney ratio,[2],1.34 ±0.15
same,Tumor-Lg Intestines ratio,[2],1.49 ±0.68
same,Tumor-Liver ratio,[2],1.2–1.3
same,Tumor-Sm Intestines ratio,[2],2.05 ±0.43
same,Tumor-Stomach ratio,[2],2.52 ±0.58
same,Blood uptake,[2],38.9 ± 10.4 % ID/g
same,Bone uptake,[2],4.81 ± 0.79 % ID/g
same,Brain uptake,[2],0.97 ± 0.19 % ID/g
same,BxPC-3 Tumor uptake,[2],24.82 ± 0.90 % ID/g
same,Fecal Matter radioactivity,[2],33.79 ± 0.90 % ID/g
same,Gall Bladder uptake,[2],28.57 ± 10.67 % ID/g
same,Heart uptake,[2],12.05 ± 2.69 % ID/g
same,Kidneys uptake,[2],18.6 ± 1.4 % ID/g
same,Lg. Intestines uptake,[2],12.75 ± 0.65 % ID/g
same,Liver uptake,[2],22.01 ± 4.74 % ID/g
same,Lung uptake,[2],19.40 ± 1.33 % ID/g
same,Muscle uptake,[2],4.64 ± 1.40 % ID/g
same,Pancreas uptake,[2],6.40 ± 1.03 % ID/g
same,Skin uptake,[2],14.77 ± 1.82 % ID/g
same,Sm. Intestines uptake,[2],12.45 ± 3.06 % ID/g
same,Spleen uptake,[2],8.10 ± 1.19 % ID/g
same,Stomach uptake,[2],10.16 ± 2.71 % ID/g
same,Urine radioactivity,[2],63.25 ± 27.58 % ID/g
same,Blood uptake,[2]; listed as [64Cu]3,38.88 ± 10.37 % ID/g
same,Kidneys uptake,[2]; listed as [64Cu]3,18.59 ± 1.41 % ID/g
same,Tumor-Blood ratio,[2]; listed as [64Cu]3,0.66 ±0.15
same,Tumor-Liver ratio,[2]; listed as [64Cu]3,1.15 ±0.21
same,Tumor-Muscle ratio,[2]; listed as [64Cu]3,5.58 ±1.49
"NC(=O)[C@H](CCCCNC(=O)[C@H](CC(=O)O)NC(=O)CCCNC(=O)CCCc1ccc(I)cc1)NC(=O)CN1CCN(CC(=O)O)CCN(CC(=O)O)CCN(CC(=O)O)CC1 [[^64Cu]4, [^64Cu]Cu DOTA-IP, metal not drawn]",Tumor-Kidney ratio,[2],1.83 ±0.19
same,Tumor-Lg Intestines ratio,[2],2.83 ±0.36
same,Tumor-Liver ratio,[2],1.2–1.3
same,Tumor-Sm Intestines ratio,[2],2.31 ±0.27
same,Tumor-Stomach ratio,[2],3.31 ±0.37
same,Blood uptake,[2],9.5 ± 1.3 % ID/g
same,Bone uptake,[2],1.19 ± 0.06 % ID/g
same,Brain uptake,[2],0.36 ± 0.05 % ID/g
same,BxPC-3 Tumor uptake,[2],7.99 ± 1.93 % ID/g
same,Fecal Matter radioactivity,[2],2.54 ± 1.41 % ID/g
same,Gall Bladder uptake,[2],10.23 ± 3.01 % ID/g
same,Heart uptake,[2],3.07 ± 0.01 % ID/g
same,Kidneys uptake,[2],4.34 ± 0.61 % ID/g and 4.3 % ID/g
same,Lg. Intestines uptake,[2],2.90 ± 1.05 % ID/g
same,Liver uptake,[2],6.21 ± 1.51 % ID/g
same,Lung uptake,[2],5.01 ± 0.69 % ID/g
same,Muscle uptake,[2],1.28 ± 0.03 % ID/g
same,Pancreas uptake,[2],1.50 ± 0.09 % ID/g
same,Skin uptake,[2],4.38 ± 0.77 % ID/g
same,Sm. Intestines uptake,[2],3.53 ± 1.24 % ID/g
same,Spleen uptake,[2],2.10 ±0.24 % ID/g
same,Stomach uptake,[2],2.39 ± 0.31 % ID/g
same,Urine radioactivity,[2],72.25 ± 35.13 % ID/g
same,Blood uptake,[2]; listed as [64Cu]4,9.51 ± 1.32 % ID/g
same,Tumor-Blood ratio,[2]; listed as [64Cu]4,0.83 ±0.09
same,Tumor-Liver ratio,[2]; listed as [64Cu]4,1.29 ± 0.001
same,Tumor-Muscle ratio,[2]; listed as [64Cu]4,6.25 ±1.37
Nc1nc2ncc(CNc3ccc(C(=O)N[C@@H](CCC(=O)O)C(=O)O)cc3)nc2c(=O)[nH]1 [folic acid],Kidney accumulation,[3]; 4 h,70 % ID/g
same,Tumor accumulation,[3]; 24 h p.i.,7 % ID/g
O=C(O)CC[C@H](NC(=O)N[C@@H](CCCCNC(=O)[C@H](Cc1ccc2ccccc2c1)NC(=O)[C@H]1CC[C@H](CNC(=O)CN2CCN(CC(=O)O)CCN(CC(=O)O)CCN(CC(=O)O)CC2)CC1)C(=O)O)C(=O)O [non-ABM PSMA-617],Tumor accumulation,[1]; 24 h,38 % ID/g
DOTA-αvβ6-BP,IC50,[4],28 ± 3 nM
[NatCu]Cu DOTA-EB-αvβ6-BP [[^NatCu]1],IC50,[5],14 ± 2 nM
[NatCu]Cu DOTA-IP-αvβ6-BP [[^NatCu]2],IC50,[5],19 ± 5 nM
[^18F]AlF NOTA-IP-ABM-αvβ6-BP,Fold lower kidney retention than [18F]AlF NOTA-A20FMDV2-peptide,[6],> 3.5 fold
[^64Cu]Cu DOTA-αvβ6-BP,Binding to serum albumin,[7],< 29%
same,BxPC-3 Tumor uptake,"[8]; 4 h, same BxPC-3 tumor model",1.61 ± 0.70 % ID/g
same,Kidney accumulation,[8]; 4 h,20.37 ± 1.67 % ID/g
same,Kidney accumulation,[8]; 48 h,6.81 ± 1.36 % ID/g
same,Binding to serum albumin,[9],< 29%
[^64Cu]Cu NOTA-EB,Blood accumulation,[10]; 4 h,~ 15 % ID/g
same,Blood accumulation,[10]; 1 d,~ 10 % ID/g
[^64Cu]Cu NOTA-EB-cRGDfK,Fold improvement in tumor accumulation vs. [64Cu]Cu NOTA-cRGDfK,[11],> 16 fold
same,Tumor accumulation,[11],16.6 % ID/g
[^64Cu]Cu NOTA-cRGDfK,Tumor accumulation,[11],< 1.1 % ID/g
[^177Lu]Lu DOTA-EB-TATE,Fold increase in tumor dose delivery,[12],7.9 fold
same,Kidney accumulation,[13]; 4 h,~ 30 % ID/g
same,Tumor accumulation,[13],78.8 % ID/g
same,Kidney accumulation,[13]; 72 h,~ 15 % ID/g
[^177Lu]Lu DOTA-TATE,Tumor accumulation,[13],9.3 % ID/g

# Reference: article PMC9025560, “A Comparison of Evans Blue and 4-(p-Iodophenyl)butyryl Albumin Binding Moieties on an Integrin αvβ6 Binding Peptide” (Pharmaceutics, 2022)
